Experimental data from US9278920B2, “Pleuromutilin derivatives for use in the treatment of diseases mediated by microbes” (Nabriva Therapeutics AG, priority 2010, dated 2016).
Where a name gives a salt, the structure may show the parent alone.

Tests used:
[1] = system: Staphylococcus aureus ATCC49951; test: MIC by Agar Dilution Test or Microdilution Test (CLSI M7-A7); format: cell-based; conditions: in vitro, strain ATCC49951, read-out: MIC against Staphylococcus aureus ATCC49951
Procedure: (§1) The in vitro activity against aerobic bacteria was determined by Agar Dilution Test or Microdilution Test according to the Clinical and Laboratory Standards Institute (CLSI, former NCCLS) Document M7-A7 Vol. 26, No. 2: “Methods for Dilution Antimicrobial Susceptibility Tests for Bacteria that Grow Aerobically—Approved Standard; Seventh Edition (2006)”; and the test against anaerobic bacteria was performed according to the Clinical and Laboratory Standards Institute (CLSI, former NCCLS), Document, M11-A6, Vol. 24, No. 2: “Methods for Antimicrobial Susceptibility Testing of Anaerobic Bacteria—Approved Standard; Sixth Edition (2004)” and the in vivo activity was tested by the septicemia mouse model against Staphylococcus aureus.

[2] = system: Streptococcus pneumoniae ATCC49619; test: as above; format: cell-based; conditions: in vitro, strain ATCC49619, read-out: MIC against Streptococcus pneumoniae ATCC49619
Procedure: as §1

With `C=C[C@]1(C)C[C@@H](OC(=O)CSC2CCC(N)CCC2O)[C@]2(C)C(C)CCC3(CCC(=O)C32)[C@@H](C)C1O` (mixture of isomers) [Example 12, 14-O-{[(1R, 2R, 5R)-5-Amino-2-hydroxy-cycloheptylsulfanyl]-acetyl}-mutilin hydrochloride and the (1S, 2S, 5S), (1R, 2R, 5S), (1S, 2S, 5R) diastereomers thereof] the MIC [1] was at most 2 µg/mL and the MIC [2] was at most 2 µg/mL.
